Like-named read-outs stand apart in the source and are kept apart here.
What was measured:
MCF7 = test: Proliferation Assay (crystal violet); format: cell-based, human
Description: Cultivated human tumor cells (as indicated) were flattened out at a density of 5000 cells/measuring point in a 96-well multititer plate in 200 μl of the corresponding growth medium. After 24 hours, the cells of one plate (zero-point plate) were colored with crystal violet (see below), while the medium of the other plates was replaced by fresh culture medium (200 μl), to which the test substances were added in various concentrations (0 μm, as well as in the range of 0.01-30 μm; the final concentration of the solvent dimethyl sulfoxide was 0.5%). The cells were incubated for 4 days in the presence of test substances. The cell proliferation was determined by coloring the cells with crystal violet: the cells were fixed by adding 20 μl/measuring point of a 11% glutaric aldehyde solution for 15 minutes at room temperature. After three washing cycles of the fixed cells with water, the plates were dried at room temperature. The cells were colored by adding 100 μl/measuring point of a 0.1% crystal violet solution (pH was set at 3 by adding acetic acid). After three washing cycles of the colored cells with water, the plates were dried at room temperature. The dye was dissolved by adding 100 μl/measuring point of a 10% acetic acid solution. The extinction was determined by photometry at a wavelength of 595 nm. The change of cell growth, in percent, was calculated by standardization of the measured values to the extinction values of the zero-point plate (=0%) and the extinction of the untreated (0 μm) cells (=100%).

CDK2/CycE = target: T1, CDK2/CycE (Homo sapiens, UniProt P24941); test: CDK2/CycE Kinase Assay; format: biochemical
T1 construct: GST; purchased Proquinase Company, Freiburg; host or cells: baculovirus-infected insect cells (Sf9)
Description: Recombinant CDK2- and CycE-GST-fusion proteins, purified from baculovirus-infected insect cells (Sf9), were purchased by the Proquinase Company, Freiburg. Histone IIIS, which was used as a kinase substrate, was purchased by the Sigma Company.
The reaction was stopped by adding EDTA solution (250 mmol, pH 8.0, 14 μl/measuring point).
From each reaction batch, 10 μl was applied to P30 filter strips (Wallac Company), and non-incorporated ^33P-ATP was removed by subjecting the filter strips to three washing cycles for 10 minutes each in 0.5% phosphoric acid. After the filter strips were dried for one hour at 70° C., the filter strips were covered with scintillator strips (MeltiLex™ A, Wallac Company) and baked for one hour at 90° C. The amount of incorporated ^33P (substrate phosphorylation) was determined by scintillation measurement in a gamma-radiation measuring device (Wallac).

[1] = Homo sapiens, MCF7, MCF-7 cells, comparison with known reference compounds, read-out: MCF-7 IC50
[2] = read-out: Inhibition IC50 CDK2/CycE
[3] = Homo sapiens, MCF7, 96 h, MCF7 cells, 4 days incubation, read-out: Proliferation IC50 MCF7

IC50 (MCF7; [1]) [nM] | IC50 (CDK2/CycE; [2]) [nM] | IC50 (MCF7; [3]) [nM] | IC50 (MCF7; MCF7 cells, 4 days incubation, read-out: Proliferation IC50 MCF7) [nM] | IC50 (CDK2/CycE; comparison with known reference compounds, read-out: CDK2/CycE IC50) [nM] | SMILES
1200 |  |  |  |  | O=C1Cc2c([nH]c3ccc([N+](=O)[O-])cc23)-c2ccccc2N1 [Alsterpaullone, reference compound]
 | 6 |  |  |  | C[C@H](CO)Nc1nc(Nc2ccc(S(N)(=O)=O)nc2)ncc1Br [Example 1.7]
 | 87 | 3000 |  |  | CC(C)[C@H](CO)Nc1nc(Nc2cc(S(N)(=O)=O)sc2Cl)ncc1Br [Example 1.8]
 | 50 |  |  |  | CC(C)[C@H](CO)Nc1nc(Nc2csc(S(N)(=O)=O)c2)ncc1Br [Example 1.9]
 | 40 | 1200 |  |  | CC(C)[C@H](CO)Nc1nc(Nc2ccc(S(N)(=O)=O)nc2)ncc1Br [Example 1.11]
 | 22 | 240 |  |  | CC(O)C(C)Nc1nc(Nc2ccc(S(N)(=O)=O)nc2)ncc1Br (centres unmarked) [Example 1.12]
 | 8 |  | < 100 |  | C[C@@H](O)[C@@H](C)Nc1nc(Nc2ccc(S(N)(=O)=O)nc2)ncc1Br [Example 1.13]
 | 17 | 870 |  |  | CC(=O)C(C)Nc1nc(Nc2ccc(S(N)(=O)=O)nc2)ncc1Br (centres unmarked) [Example 1.14]
 | 13 | 2000 |  |  | CC[C@@H](CO)Nc1nc(Nc2ccc(S(N)(=O)=O)nc2)ncc1Br [Example 1.15]
 | 36 | 2000 |  |  | COC[C@H](C)Nc1nc(Nc2ccc(S(N)(=O)=O)nc2)ncc1Br [Example 1.16]
 | 7 | 500 |  |  | CC[C@H](CO)Nc1nc(Nc2ccc(S(N)(=O)=O)nc2)ncc1Br [Example 1.17]
 | 12 |  |  |  | NS(=O)(=O)c1ccc(Nc2ncc(Br)c(NCC3CC3)n2)cn1 [Example 1.19]
 | 13 | 1900 |  |  | C[C@H](CO)Nc1nc(Nc2ccc(S(=O)(=O)NCCO)nc2)ncc1Br [Example 1.20]
 | 30 | 5300 |  |  | NS(=O)(=O)c1ccc(Nc2ncc(Br)c(SCCCCO)n2)cn1 [Example 1.21]
 | 36 | 620 |  |  | CC(CO)N(C)c1nc(Nc2ccc(S(N)(=O)=O)nc2)ncc1Br (centres unmarked) [Example 3.3]
 | 58 | 840 |  |  | CC(Nc1nc(Nc2ccc(S(N)(=O)=O)nc2)ncc1Br)C(C)(C)O (centres unmarked) [Example 3.4]
 | < 10 | 880 |  |  | C[C@H](O)[C@H](C)Nc1nc(Nc2ccc(S(N)(=O)=O)nc2)ncc1Br [Example 3.5]
 | < 10 | 100 |  |  | C[C@@H](O)[C@@H](C)Nc1nc(Nc2ccc(S(N)(=O)=O)nc2)ncc1Br [Example 3.6]
 | 20 | 790 |  |  | NS(=O)(=O)c1ccc(Nc2ncc(Br)c(NC3CCCCC3)n2)cn1 [Example 3.12]
 | 16 | 300 |  |  | CC1CCCCC1Nc1nc(Nc2ccc(S(N)(=O)=O)nc2)ncc1Br (centres unmarked) [Example 3.13]
 | < 10 | 610 |  |  | CC(CO)Sc1nc(Nc2ccc(S(N)(=O)=O)nc2)ncc1Br (centres unmarked) [Example 4.1]
 | < 10 | 260 |  |  | CCC(CO)Sc1nc(Nc2ccc(S(N)(=O)=O)nc2)ncc1Br (centres unmarked) [Example 4.2]
 | 34 | 230 |  |  | CC(O)C(C)Sc1nc(Nc2ccc(S(N)(=O)=O)nc2)ncc1Br (centres unmarked) [Example 4.3]
 | 74 | 630 |  |  | CCC(Sc1nc(Nc2ccc(S(N)(=O)=O)nc2)ncc1Br)C(C)O (centres unmarked) [Example 4.6, 5-[5-bromo-4-(1-ethyl-2-hydroxy-propylsulfanyl)-pyrimidin-2-ylamino]-pyridine-2-sulfonic acid amide]
 | 25 | 2300 |  |  | CC(Nc1nc(Nc2ccc(S(N)(=O)=O)nc2)ncc1Br)C(C)NC1CC1 (centres unmarked) [Example 6.0, 5-[5-bromo-4-(2-cyclopropylamino-1-methyl-propylamino)-pyrimidin-2-ylamino]-pyridine-2-sulfonic acid amide]
6000 |  |  |  |  | O=C1Cc2c([nH]c3ccc(Br)cc23)-c2ccccc2N1 [Kenpaullone, reference compound]
30000 |  |  |  |  | Cn1cnc2c(NCc3ccccc3)nc(NCCO)nc21 [Olomoucine, reference compound]
2000 |  |  |  | 10 | CC(C)[C@H](CO)Nc1nc(Nc2cccc(Cl)c2)c2ncn(C(C)C)c2n1 [Purvalanol A, reference compound]
